# Test results taken from PubChem BioAssay AID1963449 (Molecular Pharmacology Branch, DTP, NCI, 2024).
# Tested on: 596521-263-R-J1-PDC complex spheroid growth
# Assay: Anticancer human tumor 596521-263-R-J1-PDC patient-derived soft tissue sarcoma cell line growth inhibition [Asc]
# Conditions: for IC50: curve of first compound; for viability, T/C: stronger effect = lower value
# Procedure, shortened: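 Tumor cells were grown as multicellular spheroids with stromal HUVEC and mesenchymal stem cells and treated singly or in combination. Concentrations fell in half-log steps from the clinical Cmax, or from 10 microM where none was known.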
# 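Note: spheroids exposed to compounds for 7 days.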
smiles,measurement,setting,value
Cc1nc(N2CCC3(CC2)COC(C)C3N)c(CO)nc1Sc1ccnc(N)c1Cl (configuration not stated) + Cc1c(S(C)(=O)=O)c(-c2cc(F)cc(N3CCN(c4ccc(NS(=O)(=O)c5ccc(NC(CCN6CCC(C(=O)OCCCP(=O)(O)O)CC6)CSc6ccccc6)c(S(=O)(=O)C(F)(F)F)c5)cc4)CC3)c2)c(-c2ccc(Cl)cc2)n1C(C)C,IC50,second compound 0.0316 µM,> 3 µM
same,IC50,second compound 0.1 µM,> 3 µM
same,IC50,second compound 0.316 µM,> 3 µM
same,IC50,second compound 1 µM,2.02 µM
same,IC50,second compound 3.16 µM,0.443 µM
same,IC50,second compound 10 µM,0.0977 µM
same,"viability, T/C","second compound 0.0316 µM, first compound 0.00949 µM",85.5%
same,"viability, T/C","second compound 0.0316 µM, first compound 0.03 µM",99.6%
same,"viability, T/C","second compound 0.0316 µM, first compound 0.0949 µM",77.5%
same,"viability, T/C","second compound 0.0316 µM, first compound 0.3 µM",89%
same,"viability, T/C","second compound 0.0316 µM, first compound 0.949 µM",82.9%
same,"viability, T/C","second compound 0.0316 µM, first compound 3 µM",61.9%
same,"viability, T/C","second compound 0.1 µM, first compound 0.00949 µM",87.8%
same,"viability, T/C","second compound 0.1 µM, first compound 0.03 µM",100%
same,"viability, T/C","second compound 0.1 µM, first compound 0.0949 µM",87.2%
same,"viability, T/C","second compound 0.1 µM, first compound 0.3 µM",93.7%
same,"viability, T/C","second compound 0.1 µM, first compound 0.949 µM",84.6%
same,"viability, T/C","second compound 0.1 µM, first compound 3 µM",59.5%
same,"viability, T/C","second compound 0.316 µM, first compound 0.00949 µM",86.4%
same,"viability, T/C","second compound 0.316 µM, first compound 0.03 µM",93.7%
same,"viability, T/C","second compound 0.316 µM, first compound 0.0949 µM",87.2%
same,"viability, T/C","second compound 0.316 µM, first compound 0.3 µM",81.4%
same,"viability, T/C","second compound 0.316 µM, first compound 0.949 µM",68.9%
same,"viability, T/C","second compound 0.316 µM, first compound 3 µM",59.7%
same,"viability, T/C","second compound 1 µM, first compound 0.00949 µM",90.6%
same,"viability, T/C","second compound 1 µM, first compound 0.03 µM",85%
same,"viability, T/C","second compound 1 µM, first compound 0.0949 µM",73.4%
same,"viability, T/C","second compound 1 µM, first compound 0.3 µM",76.7%
same,"viability, T/C","second compound 1 µM, first compound 0.949 µM",64.5%
same,"viability, T/C","second compound 1 µM, first compound 3 µM",42.1%
same,"viability, T/C","second compound 3.16 µM, first compound 0.00949 µM",62.6%
same,"viability, T/C","second compound 3.16 µM, first compound 0.03 µM",63.2%
same,"viability, T/C","second compound 3.16 µM, first compound 0.0949 µM",57.4%
same,"viability, T/C","second compound 3.16 µM, first compound 0.3 µM",50%
same,"viability, T/C","second compound 3.16 µM, first compound 0.949 µM",47.3%
same,"viability, T/C","second compound 3.16 µM, first compound 3 µM",36.5%
same,"viability, T/C","second compound 10 µM, first compound 0.00949 µM",48.5%
same,"viability, T/C","second compound 10 µM, first compound 0.03 µM",54.4%
same,"viability, T/C","second compound 10 µM, first compound 0.0949 µM",52.2%
same,"viability, T/C","second compound 10 µM, first compound 0.3 µM",42.6%
same,"viability, T/C","second compound 10 µM, first compound 0.949 µM",36%
same,"viability, T/C","second compound 10 µM, first compound 3 µM",28.2%
